28 compounds from ChEMBL document CHEMBL4028852, “Design of a Chemical Probe for the Bromodomain and Plant Homeodomain Finger-Containing (BRPF) Family of Proteins” (J Med Chem, 2017) can be followed below.

Assay [1] concerns the target T1, Peregrin (Homo sapiens, UniProt P55201).
T1 sequence (P55201 whole entry): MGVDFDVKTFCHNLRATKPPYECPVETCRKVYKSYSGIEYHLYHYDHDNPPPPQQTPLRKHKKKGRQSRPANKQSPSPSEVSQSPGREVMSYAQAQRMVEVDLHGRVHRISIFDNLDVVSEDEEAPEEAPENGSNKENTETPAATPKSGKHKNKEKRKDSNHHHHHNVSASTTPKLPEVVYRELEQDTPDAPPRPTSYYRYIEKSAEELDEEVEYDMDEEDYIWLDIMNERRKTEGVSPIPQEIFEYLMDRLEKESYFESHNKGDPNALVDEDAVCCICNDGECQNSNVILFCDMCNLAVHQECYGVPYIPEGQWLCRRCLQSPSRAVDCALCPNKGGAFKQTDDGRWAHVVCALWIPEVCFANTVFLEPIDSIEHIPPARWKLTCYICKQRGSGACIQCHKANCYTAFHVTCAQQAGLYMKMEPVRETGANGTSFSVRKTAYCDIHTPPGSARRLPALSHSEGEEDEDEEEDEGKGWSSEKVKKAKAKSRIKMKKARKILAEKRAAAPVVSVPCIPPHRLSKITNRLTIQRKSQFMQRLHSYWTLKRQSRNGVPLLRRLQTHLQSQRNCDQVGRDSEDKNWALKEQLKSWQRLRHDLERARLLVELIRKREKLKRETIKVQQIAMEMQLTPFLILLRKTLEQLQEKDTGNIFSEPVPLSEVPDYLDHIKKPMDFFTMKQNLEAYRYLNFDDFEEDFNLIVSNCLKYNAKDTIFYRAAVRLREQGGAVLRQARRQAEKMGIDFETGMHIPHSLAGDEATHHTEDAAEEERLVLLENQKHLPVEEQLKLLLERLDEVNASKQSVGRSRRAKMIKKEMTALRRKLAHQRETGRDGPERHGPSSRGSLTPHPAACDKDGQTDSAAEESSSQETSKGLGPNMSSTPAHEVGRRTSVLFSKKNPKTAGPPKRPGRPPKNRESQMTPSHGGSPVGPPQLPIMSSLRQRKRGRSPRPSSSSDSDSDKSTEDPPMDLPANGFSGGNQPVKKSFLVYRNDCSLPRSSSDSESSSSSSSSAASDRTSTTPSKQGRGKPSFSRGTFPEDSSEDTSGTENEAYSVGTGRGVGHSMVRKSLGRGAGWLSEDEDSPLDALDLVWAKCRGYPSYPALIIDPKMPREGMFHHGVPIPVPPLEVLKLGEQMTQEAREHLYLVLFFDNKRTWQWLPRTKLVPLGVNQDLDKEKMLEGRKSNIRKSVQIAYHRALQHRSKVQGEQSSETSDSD
In words: Inhibition of human BRPF1 (627 to 740 residues) expressed in Escherichia coli BL21 after 1 hr by BROMOscan assay.

Assay [2] has as its target T2, Bromodomain and PHD finger-containing protein 3 (Homo sapiens, UniProt Q9ULD4).
T2 sequence (Q9ULD4 whole entry): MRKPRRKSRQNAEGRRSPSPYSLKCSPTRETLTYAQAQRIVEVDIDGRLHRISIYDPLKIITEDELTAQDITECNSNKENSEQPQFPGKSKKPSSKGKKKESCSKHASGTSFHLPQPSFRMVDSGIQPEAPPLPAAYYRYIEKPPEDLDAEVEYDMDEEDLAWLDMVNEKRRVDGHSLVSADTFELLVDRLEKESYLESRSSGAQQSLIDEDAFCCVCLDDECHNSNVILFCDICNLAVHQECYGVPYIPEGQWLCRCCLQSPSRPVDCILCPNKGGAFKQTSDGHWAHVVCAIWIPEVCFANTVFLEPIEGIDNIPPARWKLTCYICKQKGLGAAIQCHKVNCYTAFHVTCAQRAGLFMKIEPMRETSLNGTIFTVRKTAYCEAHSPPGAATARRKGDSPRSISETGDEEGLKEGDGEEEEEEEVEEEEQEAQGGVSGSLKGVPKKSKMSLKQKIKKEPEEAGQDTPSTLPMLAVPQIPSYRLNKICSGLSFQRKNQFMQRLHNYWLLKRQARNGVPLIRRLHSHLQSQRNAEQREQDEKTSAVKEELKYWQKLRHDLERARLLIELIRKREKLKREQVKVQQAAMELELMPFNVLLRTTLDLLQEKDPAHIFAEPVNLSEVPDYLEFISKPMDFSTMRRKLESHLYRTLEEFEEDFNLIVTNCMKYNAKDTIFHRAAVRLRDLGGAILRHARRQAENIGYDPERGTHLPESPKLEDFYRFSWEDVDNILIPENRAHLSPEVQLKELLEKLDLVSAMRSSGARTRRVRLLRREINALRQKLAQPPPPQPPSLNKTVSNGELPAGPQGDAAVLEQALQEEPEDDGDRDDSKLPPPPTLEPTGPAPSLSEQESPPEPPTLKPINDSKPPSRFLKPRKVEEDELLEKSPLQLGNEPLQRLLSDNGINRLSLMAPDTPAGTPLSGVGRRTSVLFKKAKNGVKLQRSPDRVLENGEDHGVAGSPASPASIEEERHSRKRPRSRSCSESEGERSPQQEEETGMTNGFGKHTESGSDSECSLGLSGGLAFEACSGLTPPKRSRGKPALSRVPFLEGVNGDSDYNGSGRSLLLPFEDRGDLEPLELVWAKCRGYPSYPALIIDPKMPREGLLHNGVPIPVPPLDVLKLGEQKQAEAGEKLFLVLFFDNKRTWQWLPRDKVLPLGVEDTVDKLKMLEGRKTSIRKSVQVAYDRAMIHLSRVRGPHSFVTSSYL
The assay can be described thus: Inhibition of human BRPF3 (588 to 701 residues) expressed in Escherichia coli BL21 after 1 hr by BROMOscan assay.

Assay [3] deals with T3, Bromodomain-containing protein 1 (Homo sapiens, UniProt O95696).
T3 sequence (O95696 whole entry): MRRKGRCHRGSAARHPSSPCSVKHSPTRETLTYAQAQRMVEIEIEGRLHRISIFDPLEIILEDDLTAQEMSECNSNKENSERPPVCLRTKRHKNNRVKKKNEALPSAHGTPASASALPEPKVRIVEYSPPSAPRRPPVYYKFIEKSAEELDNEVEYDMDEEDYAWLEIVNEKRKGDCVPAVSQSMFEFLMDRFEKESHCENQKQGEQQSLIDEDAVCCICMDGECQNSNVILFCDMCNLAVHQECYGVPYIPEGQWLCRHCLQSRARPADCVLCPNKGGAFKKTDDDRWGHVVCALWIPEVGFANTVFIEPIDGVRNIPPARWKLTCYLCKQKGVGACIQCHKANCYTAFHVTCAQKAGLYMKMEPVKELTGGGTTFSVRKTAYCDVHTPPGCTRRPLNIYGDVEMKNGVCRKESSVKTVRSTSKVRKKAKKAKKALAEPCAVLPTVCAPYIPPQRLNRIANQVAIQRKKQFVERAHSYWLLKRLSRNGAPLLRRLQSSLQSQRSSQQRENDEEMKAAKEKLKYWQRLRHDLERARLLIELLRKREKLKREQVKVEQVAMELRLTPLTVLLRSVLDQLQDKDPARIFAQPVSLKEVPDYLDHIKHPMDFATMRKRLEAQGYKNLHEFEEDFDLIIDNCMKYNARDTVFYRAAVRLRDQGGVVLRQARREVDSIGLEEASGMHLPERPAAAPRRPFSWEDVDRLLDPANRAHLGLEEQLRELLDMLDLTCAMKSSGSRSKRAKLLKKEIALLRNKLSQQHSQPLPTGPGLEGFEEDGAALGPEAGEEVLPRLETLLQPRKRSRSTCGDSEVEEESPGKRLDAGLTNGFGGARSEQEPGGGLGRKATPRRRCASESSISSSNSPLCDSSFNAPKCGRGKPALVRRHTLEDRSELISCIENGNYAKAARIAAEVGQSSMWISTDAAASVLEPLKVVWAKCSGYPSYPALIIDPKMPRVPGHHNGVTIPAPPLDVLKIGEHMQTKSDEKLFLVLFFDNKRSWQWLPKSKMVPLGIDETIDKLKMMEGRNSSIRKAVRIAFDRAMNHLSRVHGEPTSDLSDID
In words: Inhibition of human BRPF2 (556 to 688 residues) expressed in Escherichia coli BL21 after 1 hr by BROMOscan assay.

Assay [4] has as its target T4, Peregrin (Homo sapiens) (UniProt P55201).
T4 sequence (whole entry): T1 sequence (P55201 whole entry)
Description: Binding affinity to BRPF1 (unknown origin) assessed as change in melting temperature at 10 uM by differential scanning fluorimetry based thermal shift assay

Assay [5] deals with Bromodomain-containing protein 4 (Homo sapiens, UniProt O60885). In words: Inhibition of human BRD4 isoform long bromodomain 1 (44 to 168 residues) expressed in Escherichia coli BL21 after 1 hr by BROMOscan assay.
Assay [6] has as its target T5, Bromodomain-containing protein 9 (Homo sapiens, UniProt Q9H8M2).
T5 sequence (Q9H8M2 whole entry): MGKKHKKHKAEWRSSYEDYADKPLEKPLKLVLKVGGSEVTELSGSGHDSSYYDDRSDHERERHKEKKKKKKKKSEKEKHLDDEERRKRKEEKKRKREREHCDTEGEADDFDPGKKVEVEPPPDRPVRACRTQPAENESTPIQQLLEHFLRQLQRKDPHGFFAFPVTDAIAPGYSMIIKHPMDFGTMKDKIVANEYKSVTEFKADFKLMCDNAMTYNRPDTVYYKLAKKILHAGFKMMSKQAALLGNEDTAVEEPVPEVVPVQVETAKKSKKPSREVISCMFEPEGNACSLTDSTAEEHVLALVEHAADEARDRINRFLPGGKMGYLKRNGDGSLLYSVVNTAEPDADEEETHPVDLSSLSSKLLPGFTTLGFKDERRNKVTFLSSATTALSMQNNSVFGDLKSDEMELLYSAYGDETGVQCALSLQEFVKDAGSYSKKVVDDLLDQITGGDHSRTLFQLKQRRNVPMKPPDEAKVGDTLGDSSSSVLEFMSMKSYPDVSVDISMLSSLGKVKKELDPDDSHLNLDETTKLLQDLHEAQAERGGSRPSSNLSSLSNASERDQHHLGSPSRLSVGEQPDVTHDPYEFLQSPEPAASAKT
Description: Inhibition of human BRD9 (130 to 259 residues) expressed in Escherichia coli BL21 after 1 hr by BROMOscan assay

As usually defined, the IC50 is the concentration needed to halve the response being measured. Read a high IC50 as weaker potency in that assay. Consider `CCc1cc2cc(NS(=O)(=O)c3ccc(C#N)cc3OC)ccc2n(CC)c1=O`, for which the IC50 stood at 0.25 µM in assay [1], 4.6 µM in assay [2] and 4.4 µM in assay [3].

What is called ΔTm is the shift of the melting midpoint relative to a reference. Turning to `Cn1c(=O)ccc2cc(S(=O)(=O)Nc3ccc(C#N)cc3)ccc21`, the ΔTm in assay [4] turned out to be 3.1 °C. Also, the IC50 in assay [2] came out at 2.2 µM.

As to `COc1cc(C#N)ccc1S(=O)(=O)N(C)c1ccc2c(c1)cc(C)c(=O)n2C`, in assay [4], the ΔTm turned out to be 7.1 °C.

`COc1cc2c(cc1NS(=O)(=O)c1ccc(C#N)cc1OC)cc(C)c(=O)n2C` returned an IC50 in assay [5] of 1.7 µM. In assay [4], the ΔTm was determined as 12.7 °C.

Compound `CCc1cc2cc(NS(=O)(=O)c3ccc(C#N)cc3)ccc2n(CC)c1=O` came in with an IC50 in assay [5] above 100 µM.

In the case of `CCc1cc2cc(NS(=O)(=O)c3ccc(C#N)cc3)ccc2n(C)c1=O`, the ΔTm in assay [4] amounted to 5.6 °C.

For the compound `Cn1c(=O)ccc2cc(NS(=O)(=O)c3cccc(C#N)c3)ccc21`, the ΔTm in assay [4] amounted to 4.4 °C.

Compound `COc1cc2c(ccc(=O)n2C)cc1N(C)S(=O)(=O)c1ccc(C#N)cc1` registered an IC50 in assay [1] of 1 µM.

Regarding `Cn1c(=O)ccc2cc(NS(=O)(=O)C3CCCCC3)ccc21`, in assay [4], the ΔTm turned out to be 3.9 °C.

As for `COc1cc2c(ccc(=O)n2C)cc1NS(=O)(=O)c1ccc(C#N)cc1`, the IC50 in assay [5] is above 10 µM. In addition, in assay [4], the ΔTm came to 5.6 °C.

In the case of `COc1cc2c(cc1NS(=O)(=O)c1ccccc1)cc(C)c(=O)n2C`, the ΔTm in assay [4] came to 9.4 °C.

Regarding `CC(C)c1cc2cc(NS(=O)(=O)c3ccc(C#N)cc3)ccc2n(C)c1=O`, the results for the IC50 in assay [1], in assay [2] and in assay [3] were 0.87 µM, 16 µM and 14 µM, respectively.

For the compound `CCS(=O)(=O)Nc1ccc2c(ccc(=O)n2C)c1`, the ΔTm in assay [4] stood at 1.8 °C.

In assay [1], `COc1cc(C#N)ccc1S(=O)(=O)N(c1ccc2c(c1)cc(C)c(=O)n2C)C(C)C` yielded an IC50 of 0.16 µM.

As to `Cn1c(=O)ccc2cc(NS(=O)(=O)c3ccccc3)ccc21`, in assay [4], the ΔTm stood at 5.3 °C. Also, in assay [6], the IC50 stood at 2.2 µM.

As to `COc1cc2c(cc1NS(=O)(=O)c1ccc(C#N)cc1)cc(C)c(=O)n2C`, the ΔTm in assay [4] amounted to 8.8 °C.

In the case of `COc1ccccc1S(=O)(=O)Nc1ccc2c(c1)cc(C)c(=O)n2C`, the ΔTm in assay [4] was found to be 10.2 °C.

`Cn1c(=O)ccc2cc(NS(C)(=O)=O)ccc21`: in assay [4], the ΔTm is 1.4 °C.

As for `Cc1cc(=O)n(C)c2ccc(NS(=O)(=O)c3ccc(C#N)cc3)cc12`, the ΔTm in assay [4] came to 4.3 °C.

For `COc1cc2c(ccc(=O)n2C)cc1NS(=O)(=O)c1ccccc1`, the shift in melting temperature (ΔTm) in assay [4] was 6.3 °C.

As to `CC(C)S(=O)(=O)Nc1ccc2c(ccc(=O)n2C)c1`, the ΔTm in assay [4] stood at 2.2 °C.

As for `Cn1c(=O)ccc2cc(NS(=O)(=O)c3ccccc3C#N)ccc21`, the thermal shift (ΔTm) in assay [4] is 2.4 °C.

As for `Cn1c(=O)ccc2cc(NS(=O)(=O)c3ccc(C#N)cc3)ccc21`, the ΔTm in assay [4] stood at 5.2 °C.

`CCc1cc2cc(NS(=O)(=O)c3ccc(C#N)cc3OC)ccc2n(C)c1=O`: the IC50 in assay [1] turned out to be 0.093 µM. Moreover, in assay [4], the ΔTm stood at 8 °C.

Regarding `CCN(c1ccc2c(c1)cc(C)c(=O)n2C)S(=O)(=O)c1ccc(C#N)cc1OC`, inhibition in assay [1] was half-maximal at 0.11 µM (IC50).

As to `Cn1c(=O)ccc2cc(NS(=O)(=O)C3CC3)ccc21`, in assay [4], the ΔTm was found to be 1.9 °C.

On to `COc1cc(C#N)ccc1S(=O)(=O)Nc1cc(F)c2c(c1)cc(C)c(=O)n2C`, for which the IC50 in assay [1] was found to be 0.012 µM; in assay [2] it was 10 µM; in assay [3] it was 0.51 µM. In addition, the ΔTm in assay [4] was determined as 6.8 °C.

With `CN(c1ccc2c(ccc(=O)n2C)c1)S(=O)(=O)c1ccc(C#N)cc1`, the ΔTm in assay [4] is 1.8 °C.
